# Reference: patent US20060246104A1, “Stable rgd peptidomimetic composition” (priority 2003, published 2006)
# How the values were obtained:
# trypsin = assay: Enzymatic stability in trypsin solution, MALDI-TOF mass spectrometry; format: in vitro ADME; settings: for decrease in mass peak size after treatment with trypsin / mass peak intensity after trypsin exposure / degradation after prolonged trypsin exposure / mass peak intensity after prolonged trypsin exposure: 0.05 mM trypsin; for decrease in mass peak size after treatment with trypsin / mass peak intensity after trypsin exposure / mass peak intensity before trypsin exposure: 1 hr, 37° C.; for mass peak intensity after trypsin exposure / mass peak intensity before trypsin exposure: HEPES pH 8, 0.4 mM; for degradation after prolonged trypsin exposure / mass peak intensity after prolonged trypsin exposure / mass peak intensity before prolonged trypsin exposure: 16 hrs, room temperature; for mass peak intensity before trypsin exposure / mass peak intensity before prolonged trypsin exposure: control without trypsin
# Method: GRGDSP and AAGPAHA were mixed with trypsin solution in HEPES buffer (10 mM, pH=8) to a final solution of 0.4 mM peptide and 0.05 mM (0.12%) trypsin and incubated at 37° C. for 1 hr. In a control experiment, both peptides were dissolved in the same buffer without trypsin at the same final concentrations and incubated at 37° C. for 1 hr. Similarly, in another set of experiments, the same samples were incubated at room temperature overnight. At the end of the incubation period, trypsin activity was quenched by adding inhibitor; and the samples were analyzed by MALDI-TOF mass spectrometry to assess the extent of degradation.
# 3T3 fibroblasts = assay: Cell adhesion assay (cell area coverage on surface-immobilized substrates); format: cell-based; settings: substance surface-immobilized on tissue culture plastic; 3T3 cells, 24 hrs; relative to untreated tissue culture plastic
# Source text: For this study, we immobilized AAGPAHA and the peptide GRGDSP on dextran-coated tissue culture plastic dishes in a series of steps shown in FIGS. 2-4. Multi-well cell culture dishes were first surface-aminated by adsorbing poly-lysine (FIG. 2). Dextran was then immobilized on these surfaces (FIG. 3) using reported methods (Massia, Biomaterials 21:2753-61, 2000). AAGPAHA and GRGDSP were then surface-immobilized on dextran-coated tissue culture plastic (FIG. 4) using reported methods (Massia, J Biomed Mater Res 56:390-99, 2001). Dextran substrates were activated by oxidation of the glucose subunits (Glc) with sodium metaperiodate to convert Glc subunits to […]. […]
# Cell area coverage assays were performed to assess the extent of 3T3 cell adhesion and spreading on all substrates. […] Following incubation, samples were fixed (3.8% formaldehyde in phosphate buffered saline (PBS) for 5 min. and stained with 0.1% aqueous toluidine blue (5 min). Stained cells were then examined using phase contrast or stereomicroscopy (Leica) at 100× magnification. Three random 100× fields were selected for each substrate for analysis. The extent of cell adhesion was determined for each captured digital image by calculating a percentage of cell area coverage using digital image analysis software. Final data were presented as a percentage of control adhesion. […]
# [1] = tested on: 3T3 cell adhesion and spreading (integrin-mediated); assay: Cell adhesion inhibition assay (soluble competitor against grafted substrate); format: cell-based; settings: soluble GRGDSP 1 mg/mL, 3T3 cells, 24 hrs
# Method: The cell line utilized in these studies were 3T3 fibroblasts (ATCC # CRL-6476, Manassas, Va.). 3T3 cells were maintained in Dulbecco's modified Eagle medium (DMEM) with 10% fetal bovine serum (FBS) at 37° C. in saturated humidity. All cell culture media and reagents were obtained from Life Technologies, Inc. (Rockville, Md.).
# Cell area coverage assays were performed to assess the extent of 3T3 cell adhesion and spreading on all substrates. 3T3 cells were seeded on 24-well culture dishes (15,000 cells/well) and incubated for 24 hrs. Following incubation, samples were fixed (3.8% formaldehyde in phosphate buffered saline (PBS) for 5 min. and stained with 0.1% aqueous toluidine blue (5 min). Stained cells were then examined using phase contrast or stereomicroscopy (Leica) at 100× magnification. Three random 100× fields were selected for each substrate for analysis. The extent of cell adhesion was determined for each captured digital image by calculating a percentage of cell area coverage using digital image analysis software. Final data were presented as a percentage of control adhesion.
# The percentage of control adhesion was calculated by multiplying the ratio of % area coverage on dextran-coated, peptide-grafted, or peptidomimetic-grafted substrates to % cell area coverage on untreated tissue culture plastic by 100. […]
decrease in mass peak size after treatment with trypsin (trypsin),mass peak intensity after trypsin exposure (trypsin),mass peak intensity after prolonged trypsin exposure (trypsin),mass peak intensity before trypsin exposure (trypsin),mass peak intensity before prolonged trypsin exposure (trypsin),Compound,degradation after prolonged trypsin exposure (trypsin),percentage of control adhesion (cell area coverage) (3T3 fibroblasts),percentage of control adhesion on surface-immobilized AAGPAHA in presence of soluble compound [1],percentage of control adhesion on surface-immobilized AAGPAHA in presence of soluble compound ([1]; listed as RGD peptide)
no significant change,the same,the same,1.2×10^4,1.2×10^4,"N=C(N)NCCCC(N)C(=O)NCCCCC(N)C(=O)O (stereo not shown) [AAGPAHA, 2-amino-6-[(2-amino-5{guanidino}pentanoyl)amino]hexanoic acid]",highly resistant to trypsin-mediated degradation,105.9±12.8 % control,–,–
73%,4.0×10^3,3.0×10^2,1.5×10^4,1.5×10^4,GRGDSP,about 98%,124.3±4.1 % control,5.7%±6.9%,decreased cell coverage
